Tested on: human primary chondrocytes
Assay: TGF-β1 treatment of human primary chondrocytes, expression by RT-PCR and Western blotting
Type: cell-based
Procedure: In detail, the human primary chondrocytes of Example 4-1 were treated with TGF-β1, and an expression level thereof was measured by RT-PCR as in Examples 1-2 and 1-3 and Western blotting.

[1] = co-treatment with TGF-β1 (5 ng/ml), compared with single treatment with TGF-β1, FIG. 9B
[2] = TGF-β1 5 ng/ml for 24 hours, 48 hours, or 72 hours, FIG. 9

## Cc1cccc(-c2[nH]c(CNc3ccccc3F)nc2-c2ccc3ncnn3c2)n1 [TEW-7197]
[1]
  Acan expression increased by TGF-β1: suppressed
  inhibitory effect on MAST4 expression (of TGF-β1): decreased

## TGF-β1: growth factor that reduces MAST4 expression in human chondrocytes
[2]
  MAST4 expression: suppressed
  expression of extracellular matrix factors: increased
